Measurements: US8575179B2, “Dihydropyrazolopyrimidinone derivatives” (MSD K.K., priority 2008, dated 2013)

Assays:
[1] = molecular target: T1, Wee1 kinase (Homo sapiens, UniProt P30291); assay: Wee1 kinase inhibitory effect (Pharmacological Test 1); assay type: biochemical; settings: GST-tagged Wee1 kinase, Poly(Lys, Tyr) substrate, 10 μM ATP, 30° C. for 30 minutes
T1 construct: made in house; host or cells: Sf9 insect cells (recombinant baculovirus)
Excerpt: Pharmacological Test 1 (Wee1 Kinase Inhibitory Effect)
A cDNA of Wee1 kinase with glutathione-S-transferase (GST) fused at the amino terminal thereof was inserted into a baculovirus expression vector to construct a recombinant baculovirus, with which cells of an insect cell line Sf9 were infected to overexpress the target protein. The infected cells were collected and lysed, and then the GST-tagged Wee1 kinase protein was adsorbed to a glutathione column and eluted from the column with glutathione, and the active fraction was desalted in a desalting column to give a purified enzyme.
In measurement of the Wee1 kinase activity, a synthetic peptide, Poly(Lys, Tyr) hydrobromide (Lys:Tyr (4:1)) purchased from Sigma was used as the substrate.
The amount of the reaction mixture was 21.1 μL; and the composition of the reaction buffer was 50 mM Tris-HCl buffer (pH 7.4)/10 mM magnesium chloride/1 mM dithiothreitol. The purified Wee1 kinase, 2.5 μg of the substrate peptide, 10 μM of non-labeled adenosine triphosphate (ATP) and 1 μCi of [γ-^33P]-labeled ATP (2500 Ci/mmol or more) were added to the reaction buffer, and the resulting mixture was incubated at 30° C. for 30 minutes. Thereafter, 10 μL of 350 mM phosphate buffer was added to the reaction system to stop the reaction. The substrate peptide was adsorbed on a P81 paper filter 96-well plate and the plate was washed several times with 130 mM phosphate buffer, and the radioactivity thereof was counted using a liquid scintillation counter. The [γ-^33P]-labeled ATP was purchased from Amersham Bioscience, Ltd.
The addition of a test compound to the reaction system was carried out by preparing a series of dilutions of the compound with dimethyl sulfoxide (DMSO) and adding 1.1 μL of each dilution to the reaction system. As a control, 1.1 μL of DMSO was added to the reaction system.

[2] = system: Cdc2 (Cdk1) tyrosine-15 phosphorylation in NCI-H1299 cells; assay: Inhibitory effect on Cdc2 (Cdk1) tyrosine-15 phosphorylation in cells (Pharmacological Test 2, ELISA); assay type: cell-based; settings: Homo sapiens; NCI-H1299 cells pretreated with 200 nM camptothecin for 16 hours, test compound with nocodazole for 8 hours; ratio of tyrosine-15-phosphorylated Cdc2 to Cdc2
Excerpt: Pharmacological Test 2 (Method for Determining Drug Effect Using Cells (Inhibitory Effect on Cdc2 (Cdk1) Tyrosine-15 Phosphorylation))
Fetal bovine serum (FBS) was purchased from Morgate, Inc.; an RPMI-1640 medium and a DMEM medium were purchased from Invitrogen, Inc.; camptothecin was purchased from Sigma Co.; gemcitabine was purchased from Eli Lilly Japan K.K.; nocodazole and protease inhibitor cocktail were purchased from Sigma Co.; a rabbit anti-Cdc2 antibody and a mouse anti-Cdc2 antibody were purchased from Santa Cruz Biotechnology, Inc.; a rabbit anti-tyrosine-15-phosphorylated Cdc2 antibody and a horseradish peroxidase-labeled anti-mouse IgG antibody were purchased from Cell Signaling Technology, Inc.; and Sure Blue Reserve TMB peroxidase substrate was purchased from Kirkegaard & Perry Laboratories, Inc.
A human non-small cell lung cancer cell line (NCI-H1299) and a human colon cancer cell line (WiDr) can be obtained from American Type Culture Collection (ATCC).
In the method using NCI-H1299 cells, the cells were suspended in an RPMI-1640 medium supplemented with 10% FBS, and 100 μl, of the resulting cell suspension was dispensed in a Nunclon Delta treated 96-well plastic plate purchased from Nunc, Inc. at a density of 2000 cells per well, and the plate was incubated overnight at 37° C. under an atmosphere of 5% CO2 and 95% air. Camptothecin was dissolved in dimethyl sulfoxide (DMSO) and further the resulting solution was diluted with an RPMI-1640 medium supplemented with 10% FBS. Then, 50 μL of the diluted solution was added to each well of the plate in which the cells were seeded in advance such that the final concentration of camptothecin was 200 nM, and the plate was incubated at 37° C. under an atmosphere of 5% CO2 and 95% air for 16 hours. A test compound was serially diluted with DMSO, and further diluted with an RPMI-1640 medium supplemented with 10% FBS containing 4000 nM nocodazole. Then, 50 μL of the test compound solution was added to each well of the plate in which the cells treated with camptothecin were seeded, and the plate was incubated at 37° C. under an atmosphere of 5% CO2 and 95% air for 8 hours. Then, the culture medium was removed from each well and 100 μL of a cell lysis buffer was added to each well, and the plate was shaken at 4° C. for 2 hours, and thereafter the liquid in the plate was frozen at −80° C. and then thawed, which was used as a lysed cell solution. Cdc2 and tyrosine-15-phosphorylated Cdc2 in this lysed cell solution were measured by an enzyme-linked immunosorbent assay (ELISA method), and a ratio of tyrosine-15-phosphorylated Cdc2 to Cdc2 was calculated to determine a 50% effective concentration (EC50, nM) of the test compound for inhibition of phosphorylation in cells. […]

T1 sequence (P30291 whole entry): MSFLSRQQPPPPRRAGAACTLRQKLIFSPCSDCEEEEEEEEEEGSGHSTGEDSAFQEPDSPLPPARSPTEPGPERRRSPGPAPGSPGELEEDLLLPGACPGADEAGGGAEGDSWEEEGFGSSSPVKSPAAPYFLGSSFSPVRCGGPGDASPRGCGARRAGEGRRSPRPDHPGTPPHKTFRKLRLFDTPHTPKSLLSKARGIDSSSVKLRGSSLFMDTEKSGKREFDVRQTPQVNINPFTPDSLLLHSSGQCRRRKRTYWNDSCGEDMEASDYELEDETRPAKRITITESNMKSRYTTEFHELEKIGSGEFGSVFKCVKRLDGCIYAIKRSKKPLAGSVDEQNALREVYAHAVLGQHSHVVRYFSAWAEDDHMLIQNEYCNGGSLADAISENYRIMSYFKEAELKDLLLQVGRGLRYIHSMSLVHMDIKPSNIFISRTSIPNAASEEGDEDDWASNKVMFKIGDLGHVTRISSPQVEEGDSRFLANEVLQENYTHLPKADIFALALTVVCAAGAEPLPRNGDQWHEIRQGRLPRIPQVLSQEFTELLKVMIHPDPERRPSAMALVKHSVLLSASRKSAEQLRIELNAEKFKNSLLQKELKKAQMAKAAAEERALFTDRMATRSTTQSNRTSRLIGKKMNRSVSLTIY

| IC50 [1] [nM] | IC50 [2] [nM] | Compound |
| --- | --- | --- |
| 7 | 87 | Cc1cc(Nc2ncc3c(=O)n(-c4c(Cl)cccc4Cl)c(=O)[nH]c3n2)ccc1N1CCN(C)CC1 [Example 1, 3-(2,6-dichlorophenyl)-7-{[3-methyl-4-(4-methylpiperazin-1-yl)phenyl]amino}pyrimido[4,5-d]pyrimidine-2,4(1H,3H)-dione] |
| 9 | 79 | Cc1cc(Nc2ncc3c(=O)n(-c4c(C)cccc4Cl)c(=O)[nH]c3n2)ccc1N1CCN(C)CC1 [Example 2, 3-(2-chloro-6-methylphenyl)-7-{[3-methyl-4-(4-methylpiperazin-1-yl)phenyl]amino}pyrimido[4,5-d]pyrimidine-2,4(1H,3H)-dione] |
| 8 | 45 | Cc1cc(Nc2ncc3c(=O)n(-c4c(Cl)cccc4Cl)c(=O)n(C)c3n2)ccc1N1CCN(C)CC1 [Example 3, 3-(2,6-dichlorophenyl)-1-methyl-7-{[3-methyl-4-(4-methylpiperazin-1-yl)phenyl]amino}pyrimido[4,5-d]pyrimidine-2,4(1H,3H)-dione] |
| 4 |  | CC(=O)N1CCN(c2ccc(Nc3ncc4c(=O)n(-c5c(Cl)cccc5Cl)c(=O)[nH]c4n3)cc2C)CC1 [Example 9, 7-{[4-(4-acetylpiperazin-1-yl)-3-methylphenyl]amino}-3-(2,6-dichlorophenyl)pyrimido[4,5-d]pyrimidine-2,4(1H,3H)-dione] |
| 4 |  | CN1CCCN(c2ccc(Nc3ncc4c(=O)n(-c5c(Cl)cccc5Cl)c(=O)[nH]c4n3)cc2)CC1 [Example 31, 3-(2,6-dichlorophenyl)-7-{[4-(4-methyl-1,4-diazepan-1-yl)phenyl]amino}pyrimido[4,5-d]pyrimidine-2,4(1H,3H)-dione] |
| 6 |  | O=C(CO)N1CCN(c2ccc(Nc3ncc4c(=O)n(-c5c(Cl)cccc5Cl)c(=O)[nH]c4n3)cc2)CC1 [Example 32, 3-(2,6-dichlorophenyl)-7-({4-[4-(hydroxyacetyl)piperazin-1-yl]phenyl}amino)pyrimido[4,5-d]pyrimidine-2,4(1H,3H)-dione] |
| 9 |  | COC(C)(C)C(=O)N1CCN(c2ccc(Nc3ncc4c(=O)n(-c5c(Cl)cccc5Cl)c(=O)[nH]c4n3)cc2)CC1 [Example 33, 3-(2,6-dichlorophenyl)-7-({4-[4-(2-methoxy-2-methylpropionyl)piperazin-1-yl]phenyl}amino)pyrimido[4,5-d]pyrimidine-2,4(1H,3H)-dione] |

| Compound | IC50 [1] [nM] | IC50 [2] [nM] |
| --- | --- | --- |
| CN1CCN(c2ccc(Nc3ncc4c(=O)n(-c5c(Cl)cccc5Cl)c(=O)n(C)c4n3)cc2)CC1 [Example 4, 3-(2,6-dichlorophenyl)-1-methyl-7-{[4-(4-methylpiperazin-1-yl)phenyl]amino}pyrimido[4,5-d]pyrimidine-2,4(1H,3H)-dione] | 33 | 33 |
